≈ marks a conversion by molar mass, not a printed value. Where a name gives a salt, the structure may show the parent alone. Read-outs that look alike come from different tables or passages of the source.
Key:
Format in all cases: cell-based
[1] = system: Staphylococcus aureus 209-P; test: MIC, standard agar dilution method, Staphylococcus aureus 209-P; settings: Mueller Hinton agar, 18 hours, 37° C.
Description: (§1) Minimal inhibitory concentration (MIC) was determined by the standard agar dilution method of the Japan Society of Chemotherapy.
(§2) Compounds were dissolved in appropriate solvents (sterilized water for sodium salts and acetone-water [1:1] for free acids) and serial two-fold dilutions were made. Sodium salt of Cefazolin was chosen as the control compound.
(§3) One-ml aliquots of each dilution were mixed with 9 ml of Mueller Hinton gar in petri-dishes to make agar plates containing the compound at serially diluted concentrations. After agar hardened, plates were put in an incubator at 37° C. for 1.5-2 hours with the lids slightly open to evaporate acetone off the plates.
(§4) Test organisms were grown for 18 hours at 37° C. in Trypticase Soy broth and diluted in saline to approximately 10^6 colony forming units per ml. A loopful of each cell suspension was applied on the agar plate mentioned above and the plates were incubated for 18 hours at 37° C. before MIC was determined.
(§5) The results are shown in Table 2, wherein the compound of Example 5 was selected and used in a form of free carboxylic acid as set forth in the Example 5, Item (a).

Escherichia coli NIHJ = test: MIC, standard agar dilution method, Escherichia coli NIHJ
Description: as §1, §2, §3, §4, §5

[2] = system: Klebsielle pneumoniae EK-6; test: MIC, standard agar dilution method, Klebsielle pneumoniae EK-6
Description: as §1, §2, §3, §4, §5

Proteus morganii EP-14 = test: MIC, standard agar dilution method, Proteus morganii EP-14; settings: Morganella morganii, EP14, Mueller Hinton agar, 18 hours, 37° C.
Description: as §1, §2, §3, §4, §5

[3] = system: Pseudomonas aeruginosa EP-172; test: MIC, standard agar dilution method, Pseudomonas aeruginosa EP-172; settings: EP172, Mueller Hinton agar, 18 hours, 37° C.
Description: as §1, §2, §3, §4, §5

[4] = system: Serratia marcescens ES-75; test: MIC, standard agar dilution method, Serratia marcescens ES-75; settings: ES75, Mueller Hinton agar, 18 hours, 37° C.
Description: as §1, §2, §3, §4, §5

Proteus bulgaris E-18 = test: MIC, standard agar dilution method, Proteus bulgaris E-18; settings: Mueller Hinton agar, 18 hours, 37° C.
Description: as §1, §2, §3, §4, §5

[5] = Escherichia coli NIHJ, Mueller Hinton agar, 18 hours, 37° C., read-out: MIC
[6] = Klebsielle pneumoniae EK-6, Mueller Hinton agar, 18 hours, 37° C., read-out: MIC

SMILES	MIC [1] [µg/mL]	MIC (Escherichia coli NIHJ; Escherichia coli, 18 h) [µg/mL]	MIC ([2]; 18 h) [µg/mL]	MIC (Proteus morganii EP-14) [µg/mL]	MIC [3] [µg/mL]	MIC [4] [µg/mL]	MIC (Proteus bulgaris E-18) [µg/mL]	MIC (Escherichia coli NIHJ; [5]) [µg/mL]	MIC [2, 6] [µg/mL]
Cc1nnc(SCC2=C(C(=O)O)N3C(=O)[C@@H](NC(=O)Cn4cnnn4)[C@H]3SC2)s1 [Control, Sodium salt of Cefazolin, reference compound]	0.4	1.56	1.56	> 100	> 100	> 100	> 3200		
CO[C@@]1(NC(=O)[C@H](NC(=O)c2coc3cc(OC(C)=O)c(OC(C)=O)cc3c2=O)c2ccc(O)cc2)C(=O)N2C(C(=O)O)=C(CSc3nnnn3C)CS[C@@H]21 [Example 1, 7β-[D-2-(6,7-Diacetoxychromone-3-carboxamido)-2-(4-hydroxyphenyl)acetamido]-7α-methoxy-3-(1-methyl-5-tetrazolyl)thiomethyl-3-cephem-4-carboxylic acid]	1.56 (≈ 1.96 µM)			3.13 (≈ 3.93 µM)	0.4 (≈ 0.503 µM)	≤ 0.1	0.4 (≈ 0.503 µM)	0.4 (≈ 0.503 µM)	≤ 0.1
CO[C@@]1(NC(=O)[C@H](NC(=O)c2coc3c(OC(C)=O)c(OC(C)=O)ccc3c2=O)c2ccc(O)cc2)C(=O)N2C(C(=O)O)=C(CSc3nnnn3C)CS[C@@H]21 [Example 2]	1.56 (≈ 1.96 µM)			50 (≈ 62.8 µM)	0.8 (≈ 1.01 µM)	0.8 (≈ 1.01 µM)	6.25 (≈ 7.85 µM)	3.13 (≈ 3.93 µM)	≤ 0.1
CO[C@@]1(NC(=O)[C@H](NC(=O)c2coc3c(O)c(O)ccc3c2=O)c2ccc(O)cc2)C(=O)N2C(C(=O)O)=C(CSc3nnnn3C)CS[C@@H]21 [Example 4, 7β-[D-2-(7,8-Dihydroxychromone-3-carboxyamido)-2-(4-hydroxyphenyl)acetamido]-7α-methoxy-3-(1-methyl-5-tetrazolyl)thiomethyl-3-cephem-4-carboxylic acid]	3.13 (≈ 4.4 µM)			50 (≈ 70.3 µM)	0.8 (≈ 1.12 µM)	0.8 (≈ 1.12 µM)	3.13 (≈ 4.4 µM)	3.13 (≈ 4.4 µM)	≤ 0.1
CO[C@@]1(NC(=O)[C@H](NC(=O)c2coc3cc(O)c(O)cc3c2=O)c2ccccc2)C(=O)N2C(C(=O)O)=C(COC(C)=O)CS[C@@H]21 [Example 5, 7β-[D-2-(6,7-Dihydroxychromone-3-carboxamido)-2-phenylacetamido]-7α-methoxy-3-acetoxymethyl-3-cephem-4-carboxylic acid]	3.13 (≈ 4.89 µM)			25 (≈ 39.1 µM)	3.13 (≈ 4.89 µM)	0.2 (≈ 0.313 µM)	0.8 (≈ 1.25 µM)	0.8 (≈ 1.25 µM)	≤ 0.1
CO[C@@]1(NC(=O)[C@H](NC(=O)c2coc3cc(O)c(O)cc3c2=O)c2ccccc2)C(=O)N2C(C(=O)O)=C(CSc3nnc(C)s3)CS[C@@H]21 [Example 6, 7β-[D-2-(6,7-Dihydroxychromone-3-carboxyamido)-2-phenylacetamido]-7α-methoxy-3-[2-5-methyl-2-(1,3,4-thiadiazolyl)]thiomethyl-3-cepnem-4-carboxylic acid]	3.13 (≈ 4.4 µM)			12.5 (≈ 17.6 µM)	3.13 (≈ 4.4 µM)	≤ 0.1	0.8 (≈ 1.12 µM)	0.8 (≈ 1.12 µM)	≤ 0.1
CO[C@@]1(NC(=O)[C@H](NC(=O)c2coc3c(O)c(O)ccc3c2=O)c2ccccc2)C(=O)N2C(C(=O)O)=C(COC(C)=O)CS[C@@H]21 [Example 7, 7β-[D-2-(7,8-Dihydroxychromone-3-carboxyamido)-2-phenylacetamido]-7α-methoxy-3-acetoxymethyl-3-cephem-4-carboxylic acid]	6.25 (≈ 9.77 µM)			100 (≈ 156 µM)	3.13 (≈ 4.89 µM)	12.5 (≈ 19.5 µM)	50 (≈ 78.2 µM)	3.13 (≈ 4.89 µM)	0.2 (≈ 0.313 µM)
CO[C@@]1(NC(=O)[C@H](NC(=O)c2coc3ccccc3c2=O)c2ccc(O)cc2)C(=O)N2C(C(=O)O)=C(CSc3nnnn3C)CS[C@@H]21 [Example 10, 7β-[D-2-(Chromone-3-carboxamido)-2-(4-hydroxyphenyl)acetamido]-7α-methoxy-3-(1-methyl-5-tetrazolyl)thiomethyl-3-cephem-4-carboxylic acid]	0.4 (≈ 0.589 µM)			25 (≈ 36.8 µM)	25 (≈ 36.8 µM)	12.5 (≈ 18.4 µM)	50 (≈ 73.6 µM)	12.5 (≈ 18.4 µM)	12.5 (≈ 18.4 µM)
CO[C@@]1(NC(=O)[C@H](NC(=O)c2coc3c(C)c(OCc4ccccc4)ccc3c2=O)c2ccccc2)C(=O)N2C(C(=O)O)=C(COC(C)=O)CS[C@@H]21 [Example 13, 7β-[D-2-(7-Benzyloxy-8-methylchromone-3-carboxamido)-2-phenylacetamido]-7α-methoxy-3-acetoxymethyl-3-cephem-4-carboxylic acid]	0.4 (≈ 0.55 µM)			1.56 (≈ 2.14 µM)	12.5 (≈ 17.2 µM)	3.13 (≈ 4.3 µM)	0.8 (≈ 1.1 µM)	3.13 (≈ 4.3 µM)	3.13 (≈ 4.3 µM)
CO[C@@]1(NC(=O)[C@H](NC(=O)c2coc3cc(O)c(O)cc3c2=O)c2ccc(O)cc2)C(=O)N2C(C(=O)O)=C(CSc3nnnn3CC(=O)O)CS[C@@H]21 [Example 15, 7β-[D-2-(6,7-Dihydroxychromone-3-carboxamido)-2-(4-hydroxyphenyl)acetamido]-7α-methoxy-3-(1-carboxymethyl-5-tetrazolyl)thiomethyl-3-cephem-4-carboxylic acid]	6.25 (≈ 8.27 µM)			12.5 (≈ 16.5 µM)	3.13 (≈ 4.14 µM)	0.4 (≈ 0.529 µM)	1.56 (≈ 2.06 µM)	6.25 (≈ 8.27 µM)	≤ 0.1
CO[C@@]1(NC(=O)[C@H](NC(=O)c2coc3c(O)c(O)ccc3c2=O)c2ccc(O)cc2)C(=O)N2C(C(=O)O)=C(CSc3nnnn3CC(=O)O)CS[C@@H]21 [Example 18, 7β-[D-2-(7,8-Dihydroxychromone-3-carboxamido)-2-(4-hydroxyphenyl)acetamido]-7α-methoxy-3-(1-carboxymethyl-5-tetrazolyl)thiomethyl-3-cephem-4-carboxylic acid]	25 (≈ 33.1 µM)			50 (≈ 66.2 µM)	6.25 (≈ 8.27 µM)	3.13 (≈ 4.14 µM)	6.25 (≈ 8.27 µM)	25 (≈ 33.1 µM)	0.8 (≈ 1.06 µM)
COC(=O)Cn1nnnc1SCC1=C(C(=O)O)N2C(=O)[C@](NC(=O)[C@H](NC(=O)c3coc4cc(O)c(O)cc4c3=O)c3ccc(O)cc3)(OC)[C@H]2SC1 [Example 19, 7β-[D-2-(6,7-Dihydroxychromone-3-carboxamido)-2-(4-hydroxyphenyl)acetamido]-7α-methoxy-3-(1-methoxycarbonylmethyl-5-tetrazolyl)thiomethyl-3-cephem-4-carboxylic acid]	3.13 (≈ 4.07 µM)			1.56 (≈ 2.03 µM)	0.8 (≈ 1.04 µM)	≤ 0.1	0.4 (≈ 0.52 µM)	1.56 (≈ 2.03 µM)	≤ 0.1
CCOC(=O)Oc1cc2occ(C(=O)N[C@@H](C(=O)N[C@]3(OC)C(=O)N4C(C(=O)O)=C(COC(C)=O)CS[C@@H]43)c3ccc(O)cc3)c(=O)c2cc1OC(=O)OCC [Example 22, 7β-[D-2-(6,7-Bis(ethoxycarbonyloxy)chromone-3-carboxamido)-2-(4-hydroxyphenyl)acetamido]-7α-methoxy-3-acetoxymethyl-3-cephem-4-carboxylic acid]	1.56 (≈ 1.95 µM)			25 (≈ 31.3 µM)	0.8 (≈ 1 µM)	0.4 (≈ 0.5 µM)	1.56 (≈ 1.95 µM)	6.25 (≈ 7.82 µM)	≤ 0.1
